Read-outs that look alike come from different tables or passages of the source. Marks after values point to notes of the source that are not given here.
Legend:
hNTS1R [1] = biological target: T1, hNTS1R (Homo sapiens, UniProt P30989); assay: radioligand competition binding with [3H]UR-MK300 at intact HT-29 cells
T1 construct: intact HT-29 colon carcinoma cells expressing the hNTS1R; host or cells: HT-29 human colon carcinoma cells

hNTS1R [2] = biological target: T1, hNTS1R; settings: HT-29 cells, cited from earlier work
hNTS2R = hNTS2R (Homo sapiens, UniProt O95665); assay: radioligand competition binding with [3H]UR-MK300 at intact HEK293T-hNTS2R cells; settings: [3H]UR-MK300 c = 10 nM
Protocol: Two days prior to the experiment, white 96-well plates with clear bottoms (Costar, catalog no. 3610) were treated with poly-D-lysine hydrobromide (Sigma-Aldrich) for 10 min. The wells were washed with H2O and the plates were dried on air at rt overnight. […] After removal of the glutaraldehyde solution, the wells were washed twelve times with H2O and two times with culture medium (150–300 µL). […] On the day of the experiment, the culture medium was carefully removed using a multi-channel pipette (Transferpette S-12, Brand, Wertheim, Germany) and the cells were washed once with Dulbecco’s phosphate-buffered saline (D-PBS) containing Ca^2+ and Mg^2+ (1.8 mM CaCl2, 2.68 mM KCl, 1.47 mM KH2PO4, 3.98 mM MgSO4, 136.9 mM NaCl and 8.06 mM Na2HPO4) (200 μL, rt) followed by the careful pre-filling of the wells with 180 µL (total binding) or 160 µL (unspecific and competition binding) of D-PBS, supplemented with 1% BSA and 100 μg/mL bacitracin (Serva, Heidelberg, Germany) (in the following referred to as binding buffer). To determine total binding, 20 µL of a solution of the radioligand in binding buffer (10-fold concentrated compared to the final concentration) were added. […] To determine the displacing effect of a compound of interest, 20 µL of a solution of the respective compound in binding buffer (10-fold concentrated) and 20 µL of a 10-fold concentrated solution of the radioligand in binding buffer were added. During the incubation period of 2 h at 23 °C, the plates were gently shaken. […] The plates were sealed with a transparent sealing tape (permanent seal for microplates, PerkinElmer, product no. 1450–461) and turned upside down several times to achieve complete mixing. Prior to the measurement of the radioactivity with a MicroBeta2 plate counter (PerkinElmer), the plates were kept in the dark for at least 1 h. All experiments were performed in triplicate.

[3] = human plasma, 37 °C, cited from earlier work
hNTS1R [4] = biological target: T1, hNTS1R; assay: fura-2 Ca2+-assay on intact HT-29 cells; type: cell-based; settings: maximal response comparable to that of 1
Protocol: The fura-2 calcium assay on intact hNTS1R-expressing HT-29 cells was performed as previously described for human erythroleukemia cells using a Perkin-Elmer LS50 B spectrofluorimeter (PerkinElmer, Rodgau, Germany). At a confluency of 80–95%, cells were trypsinized, detached from the culture flask and the assay was performed as described in the protocol.

in vitro = in vitro ADME; settings: human
[5] = read-out: Ki [nM] NTS2R (converted)
[6] = read-out: pKi ± SD NTS2R (converted)
[7] = ref Schindler et al. [3] of the supplement (= [60])

T1 sequence (P30989 whole entry): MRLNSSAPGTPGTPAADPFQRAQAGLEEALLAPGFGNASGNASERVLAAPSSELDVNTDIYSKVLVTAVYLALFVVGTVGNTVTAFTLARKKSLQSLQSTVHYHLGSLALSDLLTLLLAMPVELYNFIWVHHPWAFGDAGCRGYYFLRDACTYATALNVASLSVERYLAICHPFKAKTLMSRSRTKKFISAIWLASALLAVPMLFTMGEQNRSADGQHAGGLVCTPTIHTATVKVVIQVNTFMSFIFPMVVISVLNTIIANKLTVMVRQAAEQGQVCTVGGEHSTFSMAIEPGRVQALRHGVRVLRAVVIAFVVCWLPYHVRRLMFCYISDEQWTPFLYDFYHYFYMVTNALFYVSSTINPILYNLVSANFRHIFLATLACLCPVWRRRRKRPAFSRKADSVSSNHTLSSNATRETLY
hNTS2R, sequence (O95665 whole entry): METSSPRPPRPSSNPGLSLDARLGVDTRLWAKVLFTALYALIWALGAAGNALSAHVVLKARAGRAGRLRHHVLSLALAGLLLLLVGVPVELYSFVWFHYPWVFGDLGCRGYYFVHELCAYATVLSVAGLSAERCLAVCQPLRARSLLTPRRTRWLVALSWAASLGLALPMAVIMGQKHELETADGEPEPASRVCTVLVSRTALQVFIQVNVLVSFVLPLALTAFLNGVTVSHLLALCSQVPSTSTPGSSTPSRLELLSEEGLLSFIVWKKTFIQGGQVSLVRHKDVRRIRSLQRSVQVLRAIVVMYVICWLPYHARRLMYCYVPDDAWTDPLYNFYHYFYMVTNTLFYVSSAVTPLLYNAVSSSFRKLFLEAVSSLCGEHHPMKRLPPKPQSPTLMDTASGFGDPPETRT

CN[C@@H](CCCNC(=N)N)C(=O)N[C@@H](CCCNC(=N)N)C(=O)N1CCC[C@H]1C(=O)N[C@@H](Cc1ccc(O)cc1)C(=O)N[C@H](C(=O)N[C@@H](CC(C)C)C(=O)O)C(C)(C)C [Compound 3, reference compound]
NTS1R Selectivity (Ratio Ki (NTS2R)/Ki (NTS1R)) (hNTS1R [1]): 11 | pKi NTS1R (hNTS1R [2]; ref Schindler et al. [40]): 9.07 | Ki (hNTS2R; [5]): 9.9 nM | Ki (hNTS2R; [6]): 9.77 nM | % Intact Peptide in Plasma after 1 h ([3]; ref Schindler et al. [40]): >99 ^d % | % Intact Peptide in Plasma after 6 h ([3]; ref Schindler et al. [40]): >99 ^d % | % Intact Peptide in Plasma after 24 h ([3]; ref Schindler et al. [40]): 98 ^d % | % Intact Peptide in Plasma after 48 h ([3]; ref Schindler et al. [40]): 87 ^d %

CN[C@@H](CCCNC(N)=NC(=O)NCCCCN)C(=O)N[C@@H](CCCNC(=N)N)C(=O)N1CCC[C@H]1C(=O)N[C@@H](Cc1ccc(O)cc1)C(=O)N[C@H](C(=O)N[C@@H](CC(C)C)C(=O)O)C(C)(C)C [Compound 10]
NTS1R Selectivity (Ratio Ki (NTS2R)/Ki (NTS1R)) (hNTS1R [1]): 6.8 | pKi NTS1R (hNTS1R [2]; [7]): 8.55 | Ki (hNTS1R [2]; ref Schindler et al. [3] of the supplement (= [60]), read-out: Ki [nM] NTS1R): 2.8 nM | Ki (hNTS2R; [5]): 19 nM | Ki (hNTS2R; [6]): 19.1 nM | % Intact Peptide in Plasma after 1 h [3, 7]: > 99% | % Intact Peptide in Plasma after 6 h [3, 7]: > 99% | % Intact Peptide in Plasma after 24 h [3, 7]: > 99% | % Intact Peptide in Plasma after 48 h [3, 7]: > 99%

CN[C@@H](CCCNC(N)=NC(=O)NCCCCNC(=O)CN1CCN(CC(=O)O)CCN(CC(=O)O)CCN(CC(=O)O)CC1)C(=O)N[C@@H](CCCNC(=N)N)C(=O)N1CCC[C@H]1C(=O)N[C@@H](Cc1ccc(O)cc1)C(=O)N[C@H](C(=O)N[C@@H](CC(C)C)C(=O)O)C(C)(C)C [Compound 21]
NTS1R Selectivity (Ratio Ki (NTS2R)/Ki (NTS1R)) (hNTS1R [1]): 6.0 | pKi ± SD NTS1R (hNTS1R [1]; [3H]UR-MK300 c = 1 nM, HT-29 cells, 23 °C): 8.01 ± 0.08 | Ki (hNTS1R [1]; [3H]UR-MK300 c = 1 nM, HT-29 cells, 23 °C, read-out: Ki [nM] NTS1R (converted)): 9.9 nM | agonistic activity at the Gq-coupled NTS1R (hNTS1R [4]): full agonists | pKi ± SD NTS2R (hNTS2R): 7.25 ± 0.15 | Ki (hNTS2R; [5]): 59 nM | % Intact Peptide in Plasma after 24 h (in vitro; 24 h, 100 µM, pH 7.4): 26 ± 1% | % Intact Peptide in Plasma after 48 h (in vitro; 48 h, 100 µM, pH 7.4): 4.1 ± 0.1% | remaining at 1 h, 100 µM (in vitro; plasma, pH 7.4, % Intact Peptide in Plasma after 1 h): > 99% | remaining at 6 h, 100 µM (in vitro; plasma, pH 7.4, % Intact Peptide in Plasma after 6 h): > 99%
